Assay results: patent publication US20040092588A1, “Antiseptic for wounds and mucous membranes” (priority 2001, published 2004)

System: human amnion cells (FL cells)
Assay: neutral red uptake cytotoxicity test
Assay type: cell-based
Conditions: 24 h at 37° C.
Procedure: In this test, adherent cultures of human amnion cells (FL cells) are incubated for 24 h at 37° C. with the desired concentration of the test substance in complete MEM culture medium with 5% FBS in a 5% CO2/air atmosphere. The culture medium and test substance are then removed, and new culture medium with neutral red is added. Since vital FL cells take up the dye neutral red in their lysosomes, the intensity of the eluted red coloration is correlated with the proportion of living cells. The intensity is automatically determined by the absorbance at a 540 nm test wavelength/655 nm reference wavelength. Information about the cytotoxic activity of the test substance can be obtained by comparison with a control group that was incubated with phosphate-buffered salt solution (PBS) instead of with the test substance. In addition, this model can be used to test and compare different formulations.
In the present test, different concentrations of octenidine dihydrochloride in PBS and Octenisept® (containing octenidine dihydrochloride and phenoxyethanol) were compared with each other and with PBS. The concentration values refer to the concentration of octenidine dihydrochloride.
The measured absorbances are plotted in FIGS. 1-2. Each measurement is based on 32 individual measurements. Inferential statistical analysis was performed by the U-test. […]

For `CCCCCCCCN=c1ccn(CCCCCCCCCCn2ccc(=NCCCCCCCC)cc2)cc1.Cl.Cl` [octenidine dihydrochloride], the “cytotoxic activity relative to comparable concentrations in Octenisept” value was “significantly lower” and the “absorbance (neutral red, 540 nm/655 nm) relative to Octenisept” value (all tested concentrations, U-test) was “significantly elevated”.
